Converted amounts (≈) assume the structure as drawn. The source made the active and inactive calls. No cut-off for these calls is given here.
Experiments:
THP-1 [1] = experiment: Antiinflammatory activity in human THP1 cells assessed as inhibition of LPS-stimulated TNFalpha production at 10 uM incubated for 30 mins prior to LPS-challenge measured 24 hrs post LPS challenge by ELISA; format: functional
THP-1 [2] = experiment: Antiinflammatory activity in human THP1 cells assessed as inhibition of LPS-stimulated IL-6 production at 10 uM incubated for 30 mins prior to LPS-challenge measured 24 hrs post LPS-challenge by ELISA; format: functional
Staphylococcus aureus [3] = experiment: Antibacterial activity against Staphylococcus aureus MTCC 96 up to 200 ug/mL after 24 hrs by agar well diffusion method; format: functional, organism-based
Bacillus subtilis [4] = experiment: Antibacterial activity against Bacillus subtilis MTCC 441 up to 200 ug/mL after 24 hrs by agar well diffusion method; format: functional, organism-based
Escherichia coli [5] = experiment: Antibacterial activity against Escherichia coli MTCC 443 up to 200 ug/mL after 24 hrs by agar well diffusion method; format: functional, organism-based
Salmonella typhimurium [6] = experiment: Antibacterial activity against Salmonella typhimurium MTCC 98 up to 200 ug/mL after 24 hrs by agar well diffusion method; format: functional, organism-based; conditions: Salmonella enterica subsp. enterica serovar Typhimurium
Candida albicans [7] = experiment: Antifungal activity against Candida albicans MTCC 227 up to 200 ug/mL after 2 to 3 days by agar well diffusion method; format: functional, organism-based
Aspergillus niger [8] = experiment: Antifungal activity against Aspergillus niger MTCC 281 up to 200 ug/mL after 2 to 3 days by agar well diffusion method; format: functional, organism-based
Fusarium solani [9] = experiment: Antifungal activity against Fusarium solani MTCC 350 up to 200 ug/mL after 2 to 3 days by agar well diffusion method; format: functional, organism-based
Aspergillus flavus [10] = experiment: Antifungal activity against Aspergillus flavus MTCC 277 up to 200 ug/mL after 2 to 3 days by agar well diffusion method; format: functional, organism-based
Bacillus subtilis [11] = experiment: Antibacterial activity against Bacillus subtilis MTCC 441 after 24 hrs by agar well diffusion method; format: functional; conditions: MTCC 441, 24 h
Candida albicans [12] = experiment: Antifungal activity against Candida albicans MTCC 227 after 2 to 3 days by agar well diffusion method; format: functional
Fusarium solani [13] = experiment: Antifungal activity against Fusarium solani MTCC 350 after 2 to 3 days by agar well diffusion method; format: functional
Aspergillus flavus [14] = experiment: Antifungal activity against Aspergillus flavus MTCC 277 after 2 to 3 days by agar well diffusion method; format: functional
Fusarium solani [15] = experiment: Ratio of miconazole MIC to compound MIC for Fusarium solani MTCC 350; format: functional
Aspergillus flavus [16] = experiment: Ratio of miconazole MIC to compound MIC for Aspergillus flavus MTCC 277; format: functional
Staphylococcus aureus [17] = experiment: Antibacterial activity against Staphylococcus aureus MTCC 96 after 24 hrs by agar well diffusion method; format: functional; conditions: MTCC 96, 24 h
Escherichia coli [18] = experiment: Antibacterial activity against Escherichia coli MTCC 443 after 24 hrs by agar well diffusion method; format: functional; conditions: MTCC 443, 24 h
Salmonella typhimurium [19] = experiment: Antibacterial activity against Salmonella typhimurium MTCC 98 after 24 hrs by agar well diffusion method; format: functional, Salmonella enterica subsp. enterica serovar Typhimurium; conditions: Salmonella enterica, MTCC 98, 24 h
Aspergillus niger [20] = experiment: Antifungal activity against Aspergillus niger MTCC 281 after 2 to 3 days by agar well diffusion method; format: functional
Staphylococcus aureus [21] = experiment: Ratio of ciprofloxacin MIC to compound MIC for Staphylococcus aureus MTCC 96; format: functional
Bacillus subtilis [22] = experiment: Ratio of ciprofloxacin MIC to compound MIC for Bacillus subtilis MTCC 441; format: functional
Escherichia coli [23] = experiment: Ratio of ciprofloxacin MIC to compound MIC for Escherichia coli MTCC 443; format: functional
Salmonella typhimurium [24] = experiment: Ratio of ciprofloxacin MIC to compound MIC for Salmonella typhimurium MTCC 98; format: functional, Salmonella enterica subsp. enterica serovar Typhimurium
Candida albicans [25] = experiment: Ratio of miconazole MIC to compound MIC for Candida albicans MTCC 227; format: functional
THP-1 [26] = experiment: Antiinflammatory activity in human THP1 cells assessed as inhibition of LPS-stimulated TNFalpha production at 1 uM incubated for 30 mins prior to LPS-challenge measured 24 hrs post LPS-challenge by ELISA; format: functional
THP-1 [27] = experiment: Antiinflammatory activity in human THP1 cells assessed as inhibition of LPS-stimulated IL-6 production at 1 uM incubated for 30 mins prior to LPS-challenge measured 24 hrs post LPS-challenge by ELISA; format: functional
Aspergillus niger [28] = experiment: Ratio of miconazole MIC to compound MIC for Aspergillus niger MTCC 281; format: functional

MIC (Bacillus subtilis [11])	MIC (Candida albicans [12])	MIC (Fusarium solani [13])	MIC (Aspergillus flavus [14])	MIC (Staphylococcus aureus [17])	MIC (Escherichia coli [18])	MIC (Salmonella typhimurium [19])	MIC (Aspergillus niger [20])	SMILES	inhibition at 10 µM (THP-1 [1])	inhibition at 10 µM (THP-1 [2])	Activity (Staphylococcus aureus [3])	Activity (Bacillus subtilis [4])	Activity (Escherichia coli [5])	Activity (Salmonella typhimurium [6])	Activity (Candida albicans [7])	Activity (Aspergillus niger [8])	Activity (Fusarium solani [9])	Activity (Aspergillus flavus [10])	Ratio (Fusarium solani [15])	Ratio (Aspergillus flavus [16])	also measured
								COc1ccc(C2=NN(C(C)=O)C(c3ccc(NC(=S)Nc4cccc(C(F)(F)F)c4)cc3)C2)cc1OC (stereo not drawn)	0%	8%	inactive	inactive	inactive	inactive	inactive	inactive	inactive	inactive			
								COc1ccc(C2=NN(C(C)=O)C(c3ccc(NC(=S)Nc4ccc(C)cc4)cc3)C2)cc1OC (stereo not drawn)	0%	3%	inactive	inactive	inactive	inactive	inactive	inactive	inactive	inactive			
90 µg/mL (≈ 177 µM)	90 µg/mL (≈ 177 µM)	90 µg/mL (≈ 177 µM)	90 µg/mL (≈ 177 µM)					COc1ccc(C2=NN(C(C)=O)C(c3ccc(NC(=S)Nc4ccc(Cl)cc4)cc3)C2)cc1OC (stereo not drawn)	68%	76%	inactive		inactive	inactive		inactive					
55 µg/mL (≈ 100 µM)	35 µg/mL (≈ 63.9 µM)	10 µg/mL (≈ 18.3 µM)	10 µg/mL (≈ 18.3 µM)	70 µg/mL (≈ 128 µM)	35 µg/mL (≈ 63.9 µM)	25 µg/mL (≈ 45.7 µM)	20 µg/mL (≈ 36.5 µM)	COc1ccc(C2=NN(C(C)=O)C(c3ccc(NS(=O)(=O)c4ccc(C(F)(F)F)cc4)cc3)C2)cc1OC (stereo not drawn)	0%	0%									1.5	2	
10 µg/mL (≈ 17.2 µM)	40 µg/mL (≈ 68.7 µM)	10 µg/mL (≈ 17.2 µM)	15 µg/mL (≈ 25.8 µM)	15 µg/mL (≈ 25.8 µM)	10 µg/mL (≈ 17.2 µM)	15 µg/mL (≈ 25.8 µM)	15 µg/mL (≈ 25.8 µM)	COc1ccc(C2=NN(C(C)=O)C(c3ccc(NS(=O)(=O)c4ccc(C(F)(F)F)cc4Cl)cc3)C2)cc1OC (stereo not drawn)	38%	55%									1.3	1.5	Ratio (Staphylococcus aureus [21]): 1.3; Ratio (Bacillus subtilis [22]): 1.5; Ratio (Escherichia coli [23]): 1.5; Ratio (Salmonella typhimurium [24]): 1.3
	90 µg/mL (≈ 185 µM)	90 µg/mL (≈ 185 µM)	90 µg/mL (≈ 185 µM)					COc1ccc(C2=NN(C(C)=O)C(c3ccc(NC(=O)Nc4ccc(C)c(C)c4)cc3)C2)cc1OC (stereo not drawn)	18%	30%	inactive	inactive	inactive	inactive		inactive					
25 µg/mL (≈ 47.5 µM)	15 µg/mL (≈ 28.5 µM)	15 µg/mL (≈ 28.5 µM)	15 µg/mL (≈ 28.5 µM)	25 µg/mL (≈ 47.5 µM)	15 µg/mL (≈ 28.5 µM)	40 µg/mL (≈ 76 µM)	25 µg/mL (≈ 47.5 µM)	COc1ccc(C2=NN(C(C)=O)C(c3ccc(NC(=O)Nc4ccc(C(F)(F)F)cc4)cc3)C2)cc1OC (stereo not drawn)	3%	21%										1.3	Ratio (Candida albicans [25]): 1.3
								C[C@@H]1C[C@H]2[C@@H]3CCC4=CC(=O)C=C[C@]4(C)[C@@]3(F)[C@@H](O)C[C@]2(C)[C@@]1(O)C(=O)CO [DEXAMETHASONE]													inhibition at 1 µM (THP-1 [26]): 76%; inhibition at 1 µM (THP-1 [27]): 84%
15 µg/mL (≈ 23.9 µM)	20 µg/mL (≈ 31.9 µM)	10 µg/mL (≈ 16 µM)	10 µg/mL (≈ 16 µM)	10 µg/mL (≈ 16 µM)	10 µg/mL (≈ 16 µM)	10 µg/mL (≈ 16 µM)	10 µg/mL (≈ 16 µM)	COc1ccc(C2=NN(C(C)=O)C(c3ccc(NS(=O)(=O)c4ccc(C(F)(F)F)cc4Br)cc3)C2)cc1OC (stereo not drawn)	0%	8%									1.5	2	Ratio (Staphylococcus aureus [21]): 2; Ratio (Escherichia coli [23]): 1.5; Ratio (Salmonella typhimurium [24]): 2; Ratio (Aspergillus niger [28]): 1.5
					95 µg/mL (≈ 175 µM)			COc1ccc(C2=NN(C(C)=O)C(c3ccc(NC(=S)Nc4ccccc4C(F)(F)F)cc3)C2)cc1OC (stereo not drawn)	40%	65%	inactive	inactive		inactive	inactive	inactive	inactive	inactive			
